The values below come from US20250281424A1 (New York Blood Center, Inc, priority 2020, published 2025).

In this experiment the target is T1, human PF4 (Homo sapiens, UniProt P02776).
T1 construct: PF4 is a 70 amino acid, lysine-rich 7.8 kDa platelet-specific protein; made in house; host or cells: Escherichia coli BL21DE3 pLysS (pT7-7) and/or Drosophila S2 cells
T1 sequence (P02776 32-101): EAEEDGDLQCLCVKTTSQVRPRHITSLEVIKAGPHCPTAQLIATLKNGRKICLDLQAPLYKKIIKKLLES
The experiment can be described thus: Inhibition of PF4 tetramer formation (BS3 cross-linking, SDS-PAGE). It counts as biochemical. The note with it: for inhibition at 5 µM: 5 μM inhibitor; for inhibition at 5 µM / inhibition at 10 µM / inhibition at 1 µM / inhibition at 3 µM: read-out: % inhibition of PF4 tetramer formation at single concentration of inhibitor; for inhibition at 10 µM: 10 μM inhibitor (column A); for pIC50: read-out: IC50 of PF4 tetramer formation inhibition; for inhibition at 1 µM: 1 μM inhibitor; for inhibition at 3 µM: 3 μM inhibitor (column A). Summed up:
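Monomer, dimer, trimer and tetramer fractions were quantified by densitometry after reducing 12% SDS-PAGE of BS3-cross-linked (0.2 mM, 30 min, room temperature) PF4. Before cross-linking, 10 μg/ml E. coli-expressed human WT PF4 in PBS was exposed to compound for 15 min at 37° C or 60 min at room temperature; controls lacked compound.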

The term pIC50 denotes the IC50 on a negative log10 scale, so that one unit is a factor of ten.

pIC50: −log10 of the molar value.

Regarding `COC(=O)[C@@H]1C[C@H]1C(=O)C1C(=O)c2ccc(S(=O)(=O)c3ccc4c(c3)C(=O)C(C(=O)[C@@H]3C[C@H]3C(=O)OC)C4=O)cc2C1=O` (stereo partly drawn) [Example 218, methyl (1R,2R)-2-[5-({2-[(1R,2R)-2-(methoxycarbonyl)cyclopropanecarbonyl]-1,3-dioxo-2,3-dihydro-1H-inden-5-yl}sulfonyl)-1,3-dioxo-2,3-dihydro-1H-indene-2-carbonyl]cyclopropane-1-carboxylate], the inhibition at 5 µM is 67%, the inhibition at 10 µM was 92% and the pIC50 was 5.40.

As to `COC(=O)C(C)(C)CC(=O)C1C(=O)c2ccc(C(=O)c3ccc4c(c3)C(=O)C(C(=O)CC(C)(C)C(=O)OC)C4=O)cc2C1=O` (stereo not shown) [Example 219], the inhibition at 5 µM was determined as 68%, the inhibition at 10 µM was 91% and the pIC50 is 5.30.

Consider `CO[C@@H]1O[C@H](C(=O)C2C(=O)c3ccc(S(=O)(=O)c4ccc5c(c4)C(=O)C(C(=O)[C@H]4O[C@@H](OC)[C@H]6OC(C)(C)O[C@@H]64)C5=O)cc3C2=O)[C@H]2OC(C)(C)O[C@H]12` (stereo partly drawn) [Example 220, 2-[(3aS,4S,6R,6aS)-6-methoxy-2,2-dimethyl-tetrahydro-2H-furo[3,4-d][1,3]dioxole-4-carbonyl]-5-({2-[(3aS,4S,6R,6aS)-6-methoxy-2,2-dimethyl-tetrahydro-2H-furo[3,4-d][1,3]dioxole-4-carbonyl]-1,3-dioxo-2,3-dihydro-1H-inden-5-yl}sulfonyl)-2,3-dihydro-1H-indene-1,3-dione], for which the inhibition at 5 µM stood at 90%, the inhibition at 10 µM worked out at 92% and the pIC50 is 5.60.

As for `CC(C)(C)OC(=O)N1CSC[C@@H]1C(=O)C1C(=O)c2ccc(S(=O)(=O)c3ccc4c(c3)C(=O)C(C(=O)[C@H]3CSCN3C(=O)OC(C)(C)C)C4=O)cc2C1=O` (stereo partly drawn) [Example 221, tert-butyl (4S)-4-[5-({2-[(4S)-3-[(tert-butoxy)carbonyl]-1,3-thiazolidine-4-carbonyl]-1,3-dioxo-2,3-dihydro-1H-inden-5-yl}sulfonyl)-1,3-dioxo-2,3-dihydro-1H-indene-2-carbonyl]-1,3-thiazolidine-3-carboxylate], the inhibition at 5 µM was 92%, the inhibition at 10 µM turned out to be 97% and the pIC50 was 5.64.

Consider `C[C@H]1C[C@@H](C(=O)C2C(=O)c3ccc(S(=O)(=O)c4ccc5c(c4)C(=O)C(C(=O)[C@@H]4C[C@H](C)CN4C(=O)OC(C)(C)C)C5=O)cc3C2=O)N(C(=O)OC(C)(C)C)C1` (stereo partly drawn) [Example 224, tert-butyl (2S,4S)-2-[5-({2-[(2S,4S)-1-[(tert-butoxy)carbonyl]-4-methylpyrrolidine-2-carbonyl]-1,3-dioxo-2,3-dihydro-1H-inden-5-yl}sulfonyl)-1,3-dioxo-2,3-dihydro-1H-indene-2-carbonyl]-4-methylpyrrolidine-1-carboxylate], for which the inhibition at 5 µM came to 100%, the inhibition at 10 µM turned out to be 95% and the pIC50 was 5.66.

Take `COC(=O)CCCC(=O)C1C(=O)c2ccc(C(=O)c3ccc4c(c3)C(=O)C(C(=O)CCCC(=O)OC)C4=O)cc2C1=O` (stereo not shown) [Example 225, methyl 5-{5-[2-(5-methoxy-5-oxopentanoyl)-1,3-dioxo-2,3-dihydro-1H-indene-5-carbonyl]-1,3-dioxo-2,3-dihydro-1H-inden-2-yl}-5-oxopentanoate]: the inhibition at 5 µM was determined as 87%, the inhibition at 10 µM stood at 90% and the pIC50 was 5.49.

Take `COC(=O)CCCC(=O)C1C(=O)c2ccc(-c3ccc4c(c3)C(=O)C(C(=O)CCCC(=O)OC)C4=O)cc2C1=O` (stereo not shown) [Example 226, methyl 5-[2′-(5-methoxy-5-oxopentanoyl)-1,1′,3,3′-tetraoxo-1H,1′H,2H,2′H,3H,3′H-[5,5′-biinden]-2-yl]-5-oxopentanoate]: the inhibition at 5 µM came out at 77%, the inhibition at 10 µM was 92% and the pIC50 was 5.40.

Regarding `O=C(O)CCCC(=O)C1C(=O)c2ccc(-c3ccc4c(c3)C(=O)C(C(=O)CCCC(=O)O)C4=O)cc2C1=O` (stereo not shown) [Example 227, 5-[2′-(4-carboxybutanoyl)-1,1′,3,3′-tetraoxo-1H,1′H,2H, 2′H,3H,3′H-[5,5′-biinden]-2-yi]-5-oxopentanoic acid], the pIC50 is 5.74.

On to `CC(C)(C)OC(=O)NCC(=O)C1C(=O)c2ccc(C(c3ccc4c(c3)C(=O)C(C(=O)CNC(=O)OC(C)(C)C)C4=O)(C(F)(F)F)C(F)(F)F)cc2C1=O` (stereo not shown) [Example 228, tert-butyl N-[2-(5-{2-[2-(2-{[(tert-butoxy)carbonyl]amino}acetyl)-1,3-dioxo-2,3-dihydro-1H-inden-5-yl]-1,1,1,3,3,3-hexafluoropropan-2-yl}-1,3-dioxo-2,3-dihydro-1H-inden-2-yl)-2-oxoethyl]carbamate], for which the negative logarithm of the IC50 (pIC50) was 5.55.

As for `CCOCC(=O)C1C(=O)c2ccc(C(=O)c3ccc4c(c3)C(=O)C(C(=O)COCC)C4=O)cc2C1=O` (stereo not shown) [Example 229, 2-(2-ethoxyacetyl)-5-[2-(2-ethoxyacetyl)-1,3-dioxo-2,3-dihydro-1H-indene-5-carbonyl]-2,3-dihydro-1H-indene-1,3-dione], the inhibition at 1 µM worked out at 43% and the inhibition at 3 µM came to 53%.

For `COC(=O)CCC(=O)C1C(=O)c2ccc(C(=O)c3ccc4c(c3)C(=O)C(C(=O)CCC(=O)OC)C4=O)cc2C1=O` (stereo not shown) [Example 230, methyl 4-{5-[2-(4-methoxy-4-oxobutanoyl)-1,3-dioxo-2,3-dihydro-1H-indene-5-carbonyl]-1,3-dioxo-2,3-dihydro-1H-inden-2-yl}-4-oxobutanoate], the inhibition at 1 µM stood at 1% and the inhibition at 3 µM was determined as 24%.

With `CC(C)(C)OCC(=O)C1C(=O)c2ccc(S(=O)(=O)c3ccc4c(c3)C(=O)C(C(=O)COC(C)(C)C)C4=O)cc2C1=O` (stereo not shown) [Example 231, 2-[2-(tert-butoxy)acetyl]-5-({2-[2-(tert-butoxy)acetyl]-1,3-dioxo-2,3-dihydro-1H-inden-5-yl}sulfonyl)-2,3-dihydro-1H-indene-1,3-dione], the inhibition at 1 µM came to 69%, the inhibition at 3 µM amounted to 65% and the negative logarithm of the IC50 (pIC50) is 5.77.

With `O=C(COC1CCCCC1)C1C(=O)c2ccc(S(=O)(=O)c3ccc4c(c3)C(=O)C(C(=O)COC3CCCCC3)C4=O)cc2C1=O` (stereo not shown) [Example 232, 2-[2-(cyclohexyloxy)acetyl]-5-({2-[2-(cyclohexyloxy)acetyl]-1,3-dioxo-2,3-dihydro-1H-inden-5-yl}sulfonyl)-2,3-dihydro-1H-indene-1,3-dione], the inhibition at 1 µM turned out to be 10% and the inhibition at 3 µM amounted to 67%.

Consider `CC(C)(C)OC(=O)N1CCOC(C(=O)C2C(=O)c3ccc(S(=O)(=O)c4ccc5c(c4)C(=O)C(C(=O)C4CN(C(=O)OC(C)(C)C)CCO4)C5=O)cc3C2=O)C1` (stereo not shown) [Example 233], for which the inhibition at 1 µM was 1% and the inhibition at 3 µM was 3%.

With `COCC(=O)C1C(=O)c2ccc(C(=O)c3ccc4c(c3)C(=O)C(C(=O)COC)C4=O)cc2C1=O` (stereo not shown) [Example 234, 2-(2-methoxyacetyl)-5-[2-(2-methoxyacetyl)-1,3-dioxo-2,3-dihydro-1H-indene-5-carbonyl]-2,3-dihydro-1H-indene-1,3-dione], the inhibition at 1 µM came to 21%, the inhibition at 3 µM was 72% and the pIC50 was 5.82.

Consider `CC(C)(C)OCC(=O)C1C(=O)c2ccc(C(=O)c3ccc4c(c3)C(=O)C(C(=O)COC(C)(C)C)C4=O)cc2C1=O` (stereo not shown) [Example 235, 2-[2-(tert-butoxy)acetyl]-5-{2-[2-(tert-butoxy)acetyl]-1,3-dioxo-2,3-dihydro-1H-indene-5-carbonyl}-2,3-dihydro-1H-indene-1,3-dione], for which the inhibition at 1 µM amounted to 11% and the inhibition at 3 µM came to 29%.

With `CO[C@@H](C)C(=O)C1C(=O)c2ccc(C(=O)c3ccc4c(c3)C(=O)C(C(=O)[C@H](C)OC)C4=O)cc2C1=O` (stereo partly drawn) [Example 236, 2-[(2S)-2-methoxypropanoyl]-5-{2-[(2S)-2-methoxypropanoyl]-1,3-dioxo-2,3-dihydro-1H-indene-5-carbonyl}-2,3-dihydro-1H-indene-1,3-dione], the inhibition at 1 µM came out at 20% and the inhibition at 3 µM was 25%.

With `CO[C@@H](C)C(=O)C1C(=O)c2ccc(S(=O)(=O)c3ccc4c(c3)C(=O)C(C(=O)[C@@H](C)OC)C4=O)cc2C1=O` (stereo partly drawn) [Example 237, 2-[(2R)-2-methoxypropanoyl]-5-({2-[(2S)-2-methoxypropanoyl]-1,3-dioxo-2,3-dihydro-1H-inden-5-yl}sulfonyl)-2,3-dihydro-1H-indene-1,3-dione], the inhibition at 1 µM was determined as 30% and the inhibition at 3 µM worked out at 37%.

In the case of `O=C(c1ccc2c(c1)C(=O)C(C(=O)Cc1cccnc1)C2=O)c1ccc2c(c1)C(=O)C(C(=O)Cc1cccnc1)C2=O` (stereo not shown) [Example 238, 5-{1,3-dioxo-2-[2-(pyridin-3-yl)acetyl]-2,3-dihydro-1H-indene-5-carbonyl}-2-[2-(pyridin-3-yl)acetyl]-2,3-dihydro-1H-indene-1,3-dione], the inhibition at 1 µM amounted to 7% and the inhibition at 3 µM is 100%.

`O=C(c1ccc2c(c1)C(=O)C(C(=O)Cc1ccncc1)C2=O)c1ccc2c(c1)C(=O)C(C(=O)Cc1ccncc1)C2=O` (stereo not shown) [Example 239, 5-{1,3-dioxo-2-[2-(pyridin-4-yl)acetyl]-2,3-dihydro-1H-indene-5-carbonyl}-2-[2-(pyridin-4-yl)acetyl]-2,3-dihydro-1H-indene-1,3-dione]: the inhibition at 3 µM came out at 100%.
